How the values were obtained:
BT-20 (Breast Carcinoma) = assay: Bliss excess, mean over the matrix (fraction); higher = more synergy
Summary of the method: (§1)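 Cell lines in DMEM/F12 or RPMI with 10% FBS were plated in 1536-well plates, held 24 hours at 37°C, 5% CO2, then given two-drug dose matrices for 72 hours (DMSO typically 0.2%). Viability was read by CellTiter-Glo 2.0 luminescence and scaled as inhibition from 0 (vehicle wells) to 1 (blank wells). Combination Emax is the second-highest inhibition in the matrix; Bliss excess is observed combination effect minus expected EA + EB − EA·EB, EA and EB being single-agent effects.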

NH-12 (Neuroblastoma) = assay: as above
Summary of the method: as §1

[1] = tested on: VMRC-LCD (Lung Adenocarcinoma); assay: as above
Summary of the method: as §1

[2] = tested on: KP-2 (Pancreatic Carcinoma); assay: as above
Summary of the method: as §1

[3] = tested on: DG-75 (Burkitt's Lymphoma); assay: as above
Summary of the method: as §1

GI-1 (Glioblastoma) = assay: as above
Summary of the method: as §1

[4] = tested on: HuP-T3 (Pancreatic Carcinoma); assay: as above
Summary of the method: as §1

[5] = tested on: EMC-BAC-2 (Non-Small Cell Lung Carcinoma); assay: as above
Summary of the method: as §1

GOTO (Neuroblastoma) = assay: as above
Summary of the method: as §1

[6] = tested on: KU-19-19 (Bladder Carcinoma); assay: as above
Summary of the method: as §1

[7] = tested on: EBC-1 (Squamous Cell Lung Carcinoma); assay: as above
Summary of the method: as §1

[8] = tested on: OCUM-1 (Gastric Carcinoma); assay: as above
Summary of the method: as §1

[9] = tested on: TGBC11TKB (Gastric Carcinoma); assay: as above
Summary of the method: as §1

[10] = tested on: OCUB-M (Breast Carcinoma); assay: combination Emax (second highest fraction inhibited in the dose matrix, 72 h); higher = more inhibition; extreme values may be limits of the assay
Summary of the method: as §1

[11] = tested on: NCI-H2405 (Lung Adenocarcinoma); assay: as above
Summary of the method: as §1

[12] = tested on: JHH-7 (Hepatocellular Carcinoma); assay: as above
Summary of the method: as §1

[13] = tested on: SCC-9 (Oral Cavity Carcinoma); assay: as above
Summary of the method: as §1

[14] = tested on: NCI-H322M (Lung Adenocarcinoma); assay: as above
Summary of the method: as §1

[15] = tested on: SCC-3 (B-Cell Non-Hodgkin's Lymphoma); assay: as above
Summary of the method: as §1

[16] = tested on: KU-19-19 (Bladder Carcinoma); assay: as above
Summary of the method: as §1
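Wherever Bliss excess, mean over the matrix is given: after 72 h of two-drug dosing.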

| SMILES | Bliss excess (BT-20 (Breast Carcinoma)) | Bliss excess (NH-12 (Neuroblastoma)) | Bliss excess [1] | Bliss excess [2] | Bliss excess [3] | Bliss excess (GI-1 (Glioblastoma)) | Bliss excess [4] | Bliss excess [5] | Bliss excess (GOTO (Neuroblastoma)) | Bliss excess [6] | Bliss excess [7] | Bliss excess [8] | Bliss excess [9] | combination Emax [10] | combination Emax [11] | combination Emax [12] | combination Emax [13] | combination Emax [14] | combination Emax [15] | combination Emax [16] |
| --- | --- | --- | --- | --- | --- | --- | --- | --- | --- | --- | --- | --- | --- | --- | --- | --- | --- | --- | --- | --- |
| CN(CCO)CC[C@H](CSc1ccccc1)Nc1ccc(S(=O)(=O)NC(=O)c2ccc(N3CCC([C@@H](O)c4ccccc4-c4ccc(Cl)cc4)CC3)cc2)cc1S(=O)(=O)C(F)(F)F [AZD4320] + C[C@@H](Nc1cc(F)cc(F)c1)c1cc(C(=O)N(C)C)cc2c(=O)cc(N3CCOCC3)oc12 [AZD8186] (first compound max 1 µM, 7x7, partner max 3 µM) | 0.0586 | -0.0224 | -0.0206 | 0.0419 | 0.0548 | -0.0011 | 0.038 | 0.0472 | 0.0279 | 0.0039 | 0.0576 | -0.0284 | -0.0032 | 0.835 | 0.417 | 0.368 | 0.746 | 0.506 | 0.543 | 0.315 |
| CN(CCO)CC[C@H](CSc1ccccc1)Nc1ccc(S(=O)(=O)NC(=O)c2ccc(N3CCC([C@@H](O)c4ccccc4-c4ccc(Cl)cc4)CC3)cc2)cc1S(=O)(=O)C(F)(F)F [AZD4320] + Cc1cc2ncnn2cc1Nc1ncc2c(n1)n(C1CCOCC1)c(=O)n2C [AZD7648] (first compound max 1 µM, 7x7, partner max 10 µM) | 0.0391 | -0.0248 | -0.0595 | -0.0338 | 0.0021 | 0.0161 | -0.0362 | -0.0482 | 0.075 | -0.0359 | -0.0396 | -0.0462 | 0.0075 | 0.66 | 0.186 | 0.344 | 0.306 | 0.254 | 0.337 | 0.119 |
| CN(CCO)CC[C@H](CSc1ccccc1)Nc1ccc(S(=O)(=O)NC(=O)c2ccc(N3CCC([C@@H](O)c4ccccc4-c4ccc(Cl)cc4)CC3)cc2)cc1S(=O)(=O)C(F)(F)F [AZD4320] + Cn1cnc2c(F)c(Nc3ccc(Br)cc3Cl)c(C(=O)NOCCO)cc21 [Selumetinib] (first compound max 1 µM, 7x7, partner max 3 µM) | 0.0937 | 0.0593 | 0.0277 | 0.0496 | -0.0512 | 0.0069 | -0.0166 | 0.0022 | 0.13 | 0.0193 | 0.0478 | 0.0319 | 0.0843 | 0.797 | 0.572 | 0.276 | 0.67 | 0.642 | 0.546 | 0.937 |
| COc1nnc2ccc(N3CCC(c4ccc(OCCN5CCN(C)C(=O)[C@H]5C)cc4)CC3)nn12 [AZD5153] + C=CCn1c(=O)c2cnc(Nc3ccc(N4CCN(C)CC4)cc3)nc2n1-c1cccc(C(C)(C)O)n1 [AZD1775] (first compound max 1 µM, partner max 1 µM) | -0.0856 | -0.123 | -0.0025 | -0.0288 | -0.0437 | -0.0143 | -0.0521 | -0.0014 | -0.0756 | -0.121 | 0.005 | -0.0217 | -0.0699 | 0.572 | 0.429 | 0.316 | 0.518 | 0.841 | 0.9 | 0.731 |
| COc1nnc2ccc(N3CCC(c4ccc(OCCN5CCN(C)C(=O)[C@H]5C)cc4)CC3)nn12 [AZD5153] + CC1(C)CCC(CN2CCN(c3ccc(C(=O)NS(=O)(=O)c4ccc(NCC5CCOCC5)c([N+](=O)[O-])c4)c(Oc4cnc5[nH]ccc5c4)c3)CC2)=C(c2ccc(Cl)cc2)C1 [Venetoclax] (first compound max 1 µM, 7x7, partner max 1 µM) | -0.071 | -0.0333 | -0.063 | -0.0381 | -0.063 | 0.0247 | -0.102 | -0.101 | -0.065 | -0.0567 | -0.0413 | -0.0456 | -0.0783 | 0.39 | 0.319 | 0.348 | 0.407 | 0.515 | 0.887 | 0.63 |
| COc1nnc2ccc(N3CCC(c4ccc(OCCN5CCN(C)C(=O)[C@H]5C)cc4)CC3)nn12 [AZD5153] + CCN(CCO)CCCOc1ccc2c(Nc3cc(CC(=O)Nc4cccc(F)c4)[nH]n3)ncnc2c1 [AZD2811] (first compound max 1 µM, 7x7, partner max 1 µM) | -0.0105 | -0.121 | 0.0435 | -0.0065 | 0.0144 | 0.0977 | -0.0306 | -0.0242 | -0.0561 | -0.0741 | -0.0274 | -0.0194 | -0.0962 | 0.69 | 0.367 | 0.361 | 0.428 | 0.507 | 0.9 | 0.665 |
| COc1nnc2ccc(N3CCC(c4ccc(OCCN5CCN(C)C(=O)[C@H]5C)cc4)CC3)nn12 [AZD5153] + C[C@@H]1COCCN1C2=NC(=NC(=C2)C3(CC3)[S@](=N)(=O)C)C4=C5C=CNC5=NC=C4 [AZD6738] (first compound max 1 µM, 7x7, partner max 10 µM) | -0.0267 | -0.0381 | 0.0235 | 0.0565 | -0.0203 | 0.0053 | -0.0119 | 0.0722 | -0.0422 | -0.0645 | 0.0351 | 0.0413 | -0.046 | 0.735 | 0.511 | 0.324 | 0.45 | 0.865 | 0.986 | 0.685 |
| COc1nnc2ccc(N3CCC(c4ccc(OCCN5CCN(C)C(=O)[C@H]5C)cc4)CC3)nn12 [AZD5153] + Cc1c2c(nn1C)CSCc1cc(n(C)n1)CSc1cc(c3ccccc3c1)OCCCc1c(C(=O)O)n(C)c3c-2c(Cl)ccc13 [AZD5991] (first compound max 1 µM, 7x7, partner max 1 µM) | 0.0213 | -0.0206 | 0.0098 | 0.0098 | -0.0432 | 0.0022 | 0.0051 | -0.0589 | -0.0096 | -0.0634 | -0.0528 | 0.0024 | -0.0666 | 1 | 0.36 | 0.291 | 0.601 | 0.539 | 0.997 | 0.775 |
| COc1nnc2ccc(N3CCC(c4ccc(OCCN5CCN(C)C(=O)[C@H]5C)cc4)CC3)nn12 [AZD5153] + Cn1cnc2c(F)c(Nc3ccc(Br)cc3Cl)c(C(=O)NOCCO)cc21 [Selumetinib] (first compound max 1 µM, 7x7, partner max 10 µM) | 0.0309 | -0.0476 | -0.0401 | -0.0001 | -0.0177 | 0.0286 | 0.0075 | -0.0101 | -0.0522 | -0.0007 | 0.0979 | -0.0347 | 0.0671 | 0.534 | 0.521 | 0.512 | 0.75 | 0.726 | 0.93 | 1 |
| Cc1c2c(nn1C)CSCc1cc(n(C)n1)CSc1cc(c3ccccc3c1)OCCCc1c(C(=O)O)n(C)c3c-2c(Cl)ccc13 [AZD5991] + C1CN(CCC1(C(=O)N[C@@H](CCO)C2=CC=C(C=C2)Cl)N)C3=NC=NC4=C3C=CN4 [Capivasertib] (first compound max 1 µM, 7x7, partner max 3 µM) | 0.131 | 0.0395 | -0.0416 | -0.01 | -0.0281 | 0.045 | -0.0186 | 0.0302 | 0.0118 | -0.0321 | 0.0259 | -0.0032 | 0.0116 | 1 | 0.203 | 0.188 | 0.231 | 0.225 | 0.487 | 0.174 |
| Cc1c2c(nn1C)CSCc1cc(n(C)n1)CSc1cc(c3ccccc3c1)OCCCc1c(C(=O)O)n(C)c3c-2c(Cl)ccc13 [AZD5991] + C=CCn1c(=O)c2cnc(Nc3ccc(N4CCN(C)CC4)cc3)nc2n1-c1cccc(C(C)(C)O)n1 [AZD1775] (first compound max 1 µM, partner max 1 µM) | -0.02 | -0.0549 | -0.0174 | 0.0069 | -0.0098 | -0.0109 | -0.0454 | -0.0121 | -0.0513 | -0.0518 | 0.0007 | -0.0148 | -0.0383 | 0.984 | 0.262 | 0.415 | 0.331 | 0.854 | 0.85 | 0.891 |
| Cc1c2c(nn1C)CSCc1cc(n(C)n1)CSc1cc(c3ccccc3c1)OCCCc1c(C(=O)O)n(C)c3c-2c(Cl)ccc13 [AZD5991] + CC1(C)CCC(CN2CCN(c3ccc(C(=O)NS(=O)(=O)c4ccc(NCC5CCOCC5)c([N+](=O)[O-])c4)c(Oc4cnc5[nH]ccc5c4)c3)CC2)=C(c2ccc(Cl)cc2)C1 [Venetoclax] (first compound max 1 µM, 7x7, partner max 1 µM) | 0.0755 | 0.139 | -0.0217 | 0.0157 | -0.0246 | 0.0476 | -0.0358 | -0.0512 | 0.0588 | 0.0578 | -0.0333 | -0.0182 | 0.0364 | 0.996 | 0.175 | 0.221 | 0.256 | 0.155 | 0.358 | 0.588 |
| Cc1c2c(nn1C)CSCc1cc(n(C)n1)CSc1cc(c3ccccc3c1)OCCCc1c(C(=O)O)n(C)c3c-2c(Cl)ccc13 [AZD5991] + CCN(CCO)CCCOc1ccc2c(Nc3cc(CC(=O)Nc4cccc(F)c4)[nH]n3)ncnc2c1 [AZD2811] (first compound max 1 µM, 7x7, partner max 1 µM) | 0.108 | -0.0331 | -0.0133 | 0.0395 | 0.0704 | 0.0731 | -0.019 | 0.0438 | -0.0245 | 0.0376 | 0.0019 | -0.0031 | 0.0266 | 1 | 0.221 | 0.453 | 0.293 | 0.188 | 0.51 | 0.508 |

Source: the supplement of paper PMC11061612
